Assay results published in patent US20260374756A1, “HETEROCYCLIC COMPOUNDS AS INHIBITORS OF MONOACYLGLYCEROL LIPASE (MAGL)” (Hoffmann-La Roche Inc., priority 2022, published 2026).

Molecular target: T1, hMAGL (Homo sapiens, UniProt Q99685)
T1 sequence (Q99685 1-303): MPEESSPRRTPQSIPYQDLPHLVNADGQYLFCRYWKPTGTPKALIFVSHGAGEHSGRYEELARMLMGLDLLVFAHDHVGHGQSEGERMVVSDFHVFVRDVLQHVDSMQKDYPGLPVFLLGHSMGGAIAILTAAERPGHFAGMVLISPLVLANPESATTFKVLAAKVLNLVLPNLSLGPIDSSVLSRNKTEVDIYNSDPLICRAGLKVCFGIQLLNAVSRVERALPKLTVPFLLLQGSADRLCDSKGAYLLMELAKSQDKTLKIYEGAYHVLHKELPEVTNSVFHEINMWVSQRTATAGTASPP
Assay: 2-AG assay: MAGL inhibition, hydrolysis of 2-arachidonoylglycerol to arachidonic acid followed by mass spectrometry
Type: biochemical
How it was run: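 Read-out is LC-MS/MS of arachidonic acid released from 2-arachidonoylglycerol (8 μM final), normalised to d8-arachidonic acid internal standard after acetonitrile quench. Enzyme […] and compound were pre-mixed 15 min, then reacted 30 min, both at RT, in Tris/EDTA buffer with 0.01% Tween-20 and 2.5% DMSO.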

Structure (SMILES)	IC50 [nM]
O=C(N1CC2(CC(n3cnc(C(F)F)n3)C2)C1)N1CC2(CN(Cc3cn[nH]c3C(F)(F)F)C2)C1 [Example 310, [6-[3-(difluoromethyl)-1,2,4-triazol-1-yl]-2-azaspiro[3.3]heptan-2-yl]-[6-[[5-(trifluoromethyl)-1H-pyrazol-4-yl]methyl]-2,6-diazaspiro[3.3]heptan-2-yl]methanone]	344
Cn1c(CN2CC3(C2)CN(C(=O)N2CC4(CC(n5cnc(C6CC6)n5)C4)C2)C3)nnc1C(F)(F)F [Example 322, [6-(3-cyclopropyl-1,2,4-triazol-1-yl)-2-azaspiro[3.3]heptan-2-yl]-[6-[[4-methyl-5-(trifluoromethyl)-1,2,4-triazol-3-yl]methyl]-2,6-diazaspiro[3.3]heptan-2-yl]methanone]	46.7
O=C(N1CC2(CCN(Cc3cc(C(F)(F)F)no3)CC2)C1)N1CC2(CC(n3cnc(C(F)(F)F)n3)C2)C1 [Example 317, [7-[[3-(trifluoromethyl)isoxazol-5-yl]methyl]-2,7-diazaspiro[3.5]nonan-2-yl]-[6-[3-(trifluoromethyl)-1,2,4-triazol-1-yl]-2-azaspiro[3.3]heptan-2-yl]methanone]	68.1
O=C(N1CC2(CC(Cc3nc(CC(F)(F)F)n[nH]3)C2)C1)N1CC2(CC(n3cnc(C(F)F)n3)C2)C1 [Example 316, [6-[3-(difluoromethyl)-1,2,4-triazol-1-yl]-2-azaspiro[3.3]heptan-2-yl]-[6-[[3-(2,2,2-trifluoroethyl)-1H-1,2,4-triazol-5-yl]methyl]-2-azaspiro[3.3]heptan-2-yl]methanone]	69.4
O=C(N1CC2(CC(Oc3cnn(CC(F)(F)F)c3)C2)C1)N1CC2(CC(c3cc(C4CC4)n[nH]3)C2)C1 [Example 248, [6-(3-cyclopropyl-1H-pyrazol-5-yl)-2-azaspiro[3.3]heptan-2-yl]-[6-[1-(2,2,2-trifluoroethyl)pyrazol-4-yl]oxy-2-azaspiro[3.3]heptan-2-yl]methanone]	19
Cn1ncc(CN2CC3(C2)CN(C(=O)N2CC4(CC(n5cnc(C(F)(F)F)n5)C4)C2)C3)c1C(F)(F)F [Example 164, [6-[[1-methyl-5-(trifluoromethyl)pyrazol-4-yl]methyl]-2,6-diazaspiro[3.3]heptan-2-yl]-[6-[3-(trifluoromethyl)-1,2,4-triazol-1-yl]-2-azaspiro[3.3]heptan-2-yl]methanone]	27.3
Cn1nc(C(F)(F)F)cc1CN1CCC2(CC1)CN(C(=O)N1CC3(CC(n4cnc(C5(O)CC5)n4)C3)C1)C2 [Example 27, [6-[3-(1-hydroxycyclopropyl)-1,2,4-triazol-1-yl]-2-azaspiro[3.3]heptan-2-yl]-[7-[[2-methyl-5-(trifluoromethyl)pyrazol-3-yl]methyl]-2,7-diazaspiro[3.5]nonan-2-yl]methanone]	122
CC(C)(C)n1ccnc1CN1CC2(C1)CN(C(=O)N1CC3(CC(n4cnc(C(F)(F)F)n4)C3)C1)C2 [Example 319, [6-[(1-tert-butylimidazol-2-yl)methyl]-2,6-diazaspiro[3.3]heptan-2-yl]-[6-[3-(trifluoromethyl)-1,2,4-triazol-1-yl]-2-azaspiro[3.3]heptan-2-yl]methanone]	58.3
CCn1nc(C(F)(F)F)cc1CN1CC2(C1)CN(C(=O)N1CC3(CC(n4cnc(C5(O)CC5)n4)C3)C1)C2 [Example 168, [6-[[2-ethyl-5-(trifluoromethyl)pyrazol-3-yl]methyl]-2,6-diazaspiro[3.3]heptan-2-yl]-[6-[3-(1-hydroxycyclopropyl)-1,2,4-triazol-1-yl]-2-azaspiro[3.3]heptan-2-yl]methanone]	45.6
O=C(N1CC2(CC(Cc3nc(C(F)(F)F)c[nH]3)C2)C1)N1CC2(CC(n3cnc(C(F)F)n3)C2)C1 [Example 326, [6-[3-(difluoromethyl)-1,2,4-triazol-1-yl]-2-azaspiro[3.3]heptan-2-yl]-[6-[[4-(trifluoromethyl)-1H-imidazol-2-yl]methyl]-2-azaspiro[3.3]heptan-2-yl]methanone]	22.6
O=C(N1CC2(CC(n3cnc(C(F)(F)F)n3)C2)C1)N1CC2(CN(Cc3nc(CC4CC4)no3)C2)C1 [Example 264, [6-[[3-(cyclopropylmethyl)-1,2,4-oxadiazol-5-yl]methyl]-2,6-diazaspiro[3.3]heptan-2-yl]-[6-[3-(trifluoromethyl)-1,2,4-triazol-1-yl]-2-azaspiro[3.3]heptan-2-yl]methanone]	76.3
Cn1nc(C(F)(F)F)cc1CN1CC2(C1)CN(C(=O)N1CC3(CC(n4cnc(C(F)(F)F)n4)C3)C1)C2 [Example 166]	20.3
O=C(N1CC2(CC(n3cnc(C4CC4)n3)C2)C1)N1CC2(CN(Cc3nc[nH]c3C(F)(F)F)C2)C1 [Example 238, [6-(3-cyclopropyl-1,2,4-triazol-1-yl)-2-azaspiro[3.3]heptan-2-yl]-[6-[[5-(trifluoromethyl)-1H-imidazol-4-yl]methyl]-2,6-diazaspiro[3.3]heptan-2-yl]methanone]	42.8

The next molecules have a lower IC50 than those just listed; values first:

IC50 [nM]	Structure (SMILES)
17.5	O=C(N1CC2(CC(Cc3nc(C(F)(F)F)ns3)C2)C1)N1CC2(CC(n3cnc(C4(O)CC4)n3)C2)C1 [Example 17, [6-[3-(1-hydroxycyclopropyl)-1,2,4-triazol-1-yl]-2-azaspiro[3.3]heptan-2-yl]-[6-[[3-(trifluoromethyl)-1,2,4-thiadiazol-5-yl]methyl]-2-azaspiro[3.3]heptan-2-yl]methanone]
15	O=C(N1CC2(CC(n3cnc(C(F)(F)F)n3)C2)C1)N1CC2(CN(Cc3nc(C4(C(F)(F)F)CC4)no3)C2)C1 [Example 328, [6-[[3-[1-(trifluoromethyl)cyclopropyl]-1,2,4-oxadiazol-5-yl]methyl]-2,6-diazaspiro[3.3]heptan-2-yl]-[6-[3-(trifluoromethyl)-1,2,4-triazol-1-yl]-2-azaspiro[3.3]heptan-2-yl]methanone]
12.5	O=C(N1CC2(CC(Cc3cnn(CC(F)(F)F)n3)C2)C1)N1CC2(CC(n3cnc(C4(O)CC4)n3)C2)C1 [Example 202, [6-[3-(1-hydroxycyclopropyl)-1,2,4-triazol-1-yl]-2-azaspiro[3.3]heptan-2-yl]-[6-[[2-(2,2,2-trifluoroethyl)triazol-4-yl]methyl]-2-azaspiro[3.3]heptan-2-yl]methanone]
11	O=C(N1CC2(CCN(Cc3cc(C(F)(F)F)sn3)CC2)C1)N1CC2(CC(n3cnc(C(F)(F)F)n3)C2)C1 [Example 46, [7-[[5-(trifluoromethyl)isothiazol-3-yl]methyl]-2,7-diazaspiro[3.5]nonan-2-yl]-[6-[3-(trifluoromethyl)-1,2,4-triazol-1-yl]-2-azaspiro[3.3]heptan-2-yl]methanone]
8.8	Cc1onc(C2CC2)c1CN1CC2(C1)CN(C(=O)N1CC3(CC(n4cnc(C5CC5)n4)C3)C1)C2 [Example 268, [6-[(3-cyclopropyl-5-methyl-isoxazol-4-yl)methyl]-2,6-diazaspiro[3.3]heptan-2-yl]-[6-(3-cyclopropyl-1,2,4-triazol-1-yl)-2-azaspiro[3.3]heptan-2-yl]methanone]
8.61	O=C(N1CC2(CCN(Cc3cc(C(F)(F)F)on3)CC2)C1)N1CC2(CC(n3cnc(C4CC4)n3)C2)C1 [Example 80, [6-(3-cyclopropyl-1,2,4-triazol-1-yl)-2-azaspiro[3.3]heptan-2-yl]-[7-[[5-(trifluoromethyl)isoxazol-3-yl]methyl]-2,7-diazaspiro[3.5]nonan-2-yl]methanone]
7.62	O=C(N1CC2(CC(Cn3cnc(C4(C(F)(F)F)CC4)n3)C2)C1)N1CC2(CC(n3cnc(C4(O)CC4)n3)C2)C1 [Example 75, [6-[3-(1-hydroxycyclopropyl)-1,2,4-triazol-1-yl]-2-azaspiro[3.3]heptan-2-yl]-[6-[[3-[1-(trifluoromethyl)cyclopropyl]-1,2,4-triazol-1-yl]methyl]-2-azaspiro[3.3]heptan-2-yl]methanone]
2.12	O=C(N1CC2(CC(c3cc(C4CC4)n[nH]3)C2)C1)N1CC2(CN(Cc3cc(C(F)(F)F)ns3)C2)C1 [Example 151, [6-(3-cyclopropyl-1H-pyrazol-5-yl)-2-azaspiro[3.3]heptan-2-yl]-[6-[[3-(trifluoromethyl)isothiazol-5-yl]methyl]-2,6-diazaspiro[3.3]heptan-2-yl]methanone]
1.96	O=C(N1CC2(CC(Cc3n[nH]c(C(F)(F)F)n3)C2)C1)N1CC2(CC(n3cnc(C4CC4)n3)C2)C1 [Example 10]
1.7	O=C(N1CC2(CC(Cn3nccc3C(F)(F)F)C2)C1)N1CC2(CC(c3cc(C4(O)CC4)n[nH]3)C2)C1 [Example 5]
1.07	Cc1cc(C2CC2)nn1CC1CC2(C1)CN(C(=O)N1CC3(CC(n4cnc(C(F)(F)F)n4)C3)C1)C2 [Example 134, [6-[(3-cyclopropyl-5-methyl-pyrazol-1-yl)methyl]-2-azaspiro[3.3]heptan-2-yl]-[6-[3-(trifluoromethyl)-1,2,4-triazol-1-yl]-2-azaspiro[3.3]heptan-2-yl]methanone]
0.41	Cn1ncc(C(F)(F)F)c1CN1CCC2(CC1)CN(C(=O)N1CC3(CC(n4cnc(C5CC5)n4)C3)C1)C2 [Example 66, [6-(3-cyclopropyl-1,2,4-triazol-1-yl)-2-azaspiro[3.3]heptan-2-yl]-[7-[[2-methyl-4-(trifluoromethyl)pyrazol-3-yl]methyl]-2,7-diazaspiro[3.5]nonan-2-yl]methanone]
0.08	O=C(N1CC2(CC(Cc3cn(CC(F)(F)F)nc3C(F)(F)F)C2)C1)N1CC2(CC(n3cnc(C4CC4)n3)C2)C1 [Example 122]
